pIC50, pKd: −log10 of the molar value. Like-named read-outs stand apart in the source and are kept apart here.
Legend:
[1] = target: T1, SOS1 catalytic domain (residues 564-1049) (Homo sapiens, UniProt Q07889); assay: SOS1 SPR binding affinity assay (Biacore 8K)
T1 sequence (Q07889 564-1049): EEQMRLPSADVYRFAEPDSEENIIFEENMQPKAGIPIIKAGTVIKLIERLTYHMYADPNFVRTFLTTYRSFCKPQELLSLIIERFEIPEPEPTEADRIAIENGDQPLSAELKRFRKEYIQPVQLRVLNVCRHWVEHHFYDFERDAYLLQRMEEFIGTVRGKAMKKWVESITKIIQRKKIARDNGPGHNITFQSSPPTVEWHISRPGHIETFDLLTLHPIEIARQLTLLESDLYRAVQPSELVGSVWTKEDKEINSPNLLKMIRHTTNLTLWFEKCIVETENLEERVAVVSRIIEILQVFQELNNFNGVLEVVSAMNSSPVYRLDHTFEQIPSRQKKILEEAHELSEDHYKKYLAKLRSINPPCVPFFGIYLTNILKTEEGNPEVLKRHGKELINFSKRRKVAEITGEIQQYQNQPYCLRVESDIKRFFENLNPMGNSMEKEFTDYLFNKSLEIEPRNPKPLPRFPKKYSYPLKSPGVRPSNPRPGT

[2] = target: T2, SOS1 nucleotide exchange of wild-type KRAS (SOS1 catalytic domain residues 564-1049; KRAS residue 1-169) (Homo sapiens, UniProt Q07889); assay: Inhibition of SOS1 nucleotide exchange activity of KRAS (TR-FRET); format: biochemical
T2 sequence (Q07889 564-1049): T1 sequence (Q07889 564-1049)

[3] = tested on: SOS1 function in cells: cellular pERK in PC-9 cells (EGFR Ex19Del); assay: pERK potency assay in PC-9 cells (AlphaLISA SureFire Ultra p-ERK1/2); format: cell-based; conditions: 1 hour incubation
Experimental: The purpose of this assay is tomeasure the ability of test compounds to inhibit SOS1 function in cells. SOS1 activates RAS proteins by catalyzing the conversion of RAS-GDP to RAS-GTP in response to receptor tyrosine kinase activation. […] The procedure described below measures the level of cellular pERK in response to test compounds in PC-9 cells (EGFR Ex19Del).
PC-9 cells were grown and maintained using media and procedures recommended by the ATCC. On the day prior to compound addition, cells were plated in 384-well cell culture plates (40 μL/well) and grown overnight in a 37° C., 5% CO2 incubator. Test compounds were prepared in 10, 3-fold dilutions in DMSO, with a top concentration of 10 mM. On the day of the assay, 40 nL of test compound was added to each well of cell culture plate using an Echo550 liquid handler (LabCyte). Concentrations of test compound were tested in duplicate with highest test concentration being 10 μM. After compound addition, cells were incubated for 1 hour at 37° C., 5% CO2. Following incubation, culture medium was removed and cells were washed once with phosphate buffered saline.
Cellular pERK level was determined using the AlphaLISA SureFire Ultra p-ERK1/2 Assay Kit (PerkinElmer). Cells were lysed in 25 μL lysis buffer, with shaking at 600 RPM at room temperature for 15 minutes. Lysate (10 μL) was transferred to a 384-well Opti-plate (PerkinElmer) and 5 μL acceptor mix was added. The plate was centrifuged at 1000 RPM for 1 minute, and incubated in the dark for 2 hours. Following this incubation, 5 μL of donor mix was added, the plate was sealed and centrifuged at 1000 RPM for 1 minute, and the mixture was incubated for 2 hours at room temperature. Signal was read on an Envision plate reader (PerkinElmer) using standard AlphaLISA settings. Analysis of raw data was carried out in Excel (Microsoft) and Prism (GraphPad). Signal was plotted vs. the decadal logarithm of compound concentration, and IC50 was determined by fitting a 4-parameter sigmoidal concentration response model.

[4] = avi-tagged SOS1 catalytic domain immobilized on streptavidin chip, equilibrium 1:1 binding fit, read-out: SOS1 SPR Equilibrium Kd
[5] = SOS1 nucleotide exchange of wild-type KRAS, three replicates, four-parameter logistic fit, read-out: TR-FRET IC50

| SMILES | pIC50 [2, 5] | pIC50 [3] | also measured |
| --- | --- | --- | --- |
| C[C@@H](Nc1ncnc2c1cc(N1CCOCC1)c(=O)n2C)c1cccc(C(F)(F)CO)c1 [Example 2, (R)-4-((1-(3-(1,1-difluoro-2-hydroxyethyl)phenyl)ethyl)amino)-8-methyl-6-morpholinopyrido[2,3-d]pyrimidin-7(8H)-one] | 7.89 |  | pKd [1, 4]: 8.13 |
| Cc1nc(N[C@H](C)c2cccc(C(F)(F)CO)c2)c2cc(C3=CCOCC3)c(=O)n(C)c2n1 [Example 3, (R)-4-((1-(3-(1,1-difluoro-2-hydroxyethyl)phenyl)ethyl)amino)-6-(3,6-dihydro-2H-pyran-4-yl)-2,8-dimethylpyrido[2,3-d]pyrimidin-7(8H)-one] | 7.46 |  | pKd [1, 4]: 7.66 |
| Cc1nc(N[C@H](C)c2cccc(C(F)(F)CO)c2)c2cc(C3=CCNCC3)c(=O)n(C)c2n1 [Example 4, (R)-4-((1-(3-(1,1-difluoro-2-hydroxyethyl)phenyl)ethyl)amino)-2,8-dimethyl-6-(1,2,3,6-tetrahydropyridin-4-yl)pyrido[2,3-d]pyrimidin-7(8H)-one] |  |  | pKd [1]: 8.10; pIC50 [2]: 7.97 |
| C[C@@H](Nc1ncnc2c1cc(C1=CCOCC1)c(=O)n2C)c1cccc(C(F)(F)F)c1 [Example 5, (R)-6-(3,6-dihydro-2H-pyran-4-yl)-8-methyl-4-((1-(3-(trifluoromethyl)phenyl)ethyl)amino)pyrido[2,3-d]pyrimidin-7(8H)-one] | 6.95 |  |  |
| Cc1nc(N[C@H](C)c2cc(N)cc(C(F)(F)F)c2)c2cc(C3=CCOCC3)c(=O)n(C)c2n1 [Example 7, (R)-4-((1-(3-amino-5-(trifluoromethyl)phenyl)ethyl)amino)-6-(3,6-dihydro-2H-pyran-4-yl)-2,8-dimethylpyrido[2,3-d]pyrimidin-7(8H)-one] | 6.81 |  | pKd [1, 4]: 6.93 |
| Cc1nc(N[C@H](C)c2cc(N)cc(C(F)(F)F)c2)c2cc(C3CCNCC3)c(=O)[nH]c2n1 [Example 8, (R)-4-((1-(3-amino-5-(trifluoromethyl)phenyl)ethyl)amino)-2-methyl-6-(piperidin-4-yl)pyrido[2,3-d]pyrimidin-7(8H)-one] | 7.65 |  |  |
| Cc1nc(N[C@H](C)c2cccc(C(F)(F)F)c2)c2cc(N3CCOCC3)c(=O)n(C)c2n1 [Example 10, 2,8-dimethyl-6-(morpolin-4-yl)-4-[[(1R)-1-[3-(trifluoromethyl)phenyl]ethyl]amino]-7H,8H-pyrido[2,3-d]pyrimidin-7-one] | 6.75 |  | pIC50 ([3]; Homo sapiens, PC-9, 1 h): 6.10 |
| C[C@@H](Nc1ncnc2c1cc(N1CCOCC1)c(=O)n2C1CC1)c1cccc(C(F)(F)F)c1 [Example 11, 8-cyclopropyl-6-(morpholin-4-yl)-4-{[(1R)-1-[3-(trifluoromethyl)phenyl]ethyl]amino}-7H,8H-pyrido[2,3-d]pyrimidin-7-one] | 7.48 |  | pIC50 ([3]; Homo sapiens, PC-9, 1 h): 6.53 |
| C[C@@H](Nc1ncnc2c1cc(C1=CC[S+]([O-])CC1)c(=O)n2C)c1cccc(C(F)F)c1F (stereo partly drawn) [Example 22, 4-(((R)-1-(3-(difluoromethyl)-2-fluorophenyl)ethyl)amino)-8-methyl-6-(1-oxido-3,6-dihydro-2H-thiopyran-4-yl)pyrido[2,3-d]pyrimidin-7(8H)-one] | 6.53 |  | pKd [1, 4]: 7.47 |
| C[C@@H](Nc1ncnc2c1cc(C1=CCS(=N)(=O)CC1)c(=O)n2C)c1cccc(C(F)F)c1F (stereo partly drawn) [Example 23, 4-(((R)-1-(3-(difluoromethyl)-2-fluorophenyl)ethyl)amino)-6-(1-imino-1-oxido-1,2,3,6-tetrahydro-1λ^6-thiopyran-4-yl)-8-methylpyrido[2,3-d]pyrimidin-7(8H)-one] | 7.68 |  | pKd [1, 4]: 7.70 |
| CN=S1(=O)CC=C(c2cc3c(N[C@H](C)c4cccc(C(F)F)c4F)ncnc3n(C)c2=O)CC1 (stereo partly drawn) [Example 24, 4-(((R)-1-(3-(difluoromethyl)-2-fluorophenyl)ethyl)amino)-8-methyl-6-(1-(methylimino)-1-oxido-1,2,3,6-tetrahydro-1λ^6-thiopyran-4-yl)pyrido[2,3-d]pyrimidin-7(8H)-one] | 7.87 |  |  |
| C[C@@H](Nc1ncnc2c1cc(C1CC[S+]([O-])CC1)c(=O)n2C)c1cccc(C(F)F)c1F (stereo partly drawn) [Example 25, (R)-4-((1-(3-(difluoromethyl)-2-fluorophenyl)ethyl)amino)-8-methyl-6-(1-oxidotetrahydro-2H-thiopyran-4-yl)pyrido[2,3-d]pyrimidin-7(8H)-one] | 7.80 |  | pKd [1, 4]: 7.71 |
| C[C@@H](Nc1ncnc2c1cc(Sc1ccccc1)c(=O)n2C)c1cccc(C(F)F)c1F [Example 30, 4-{[(1R)-1-[3-(difluoromethyl)-2-fluorophenyl]ethyl]amino}-8-methyl-6-(phenylsulfanyl)-7H,8H-pyrido[2,3-d]pyrimidin-7-one] | 4.96 |  |  |
| COC1(c2cc3c(N[C@H](C)c4cccc(C(F)F)c4F)ncnc3n(C)c2=O)CCS(=O)(=O)CC1 [Example 32, 4-(4-{[(1R)-1-[3-(difluoro-methyl)-2-fluorophenyl]ethyl]amino}-8-methyl-7-oxo-7H,8H-pyrido[2,3-d]pyrimidin-6-yl)-4-methoxy-1λ^6-thiane-1,1-dione] |  |  | pKd [1, 4]: 7.40 |
| COC1(c2cc3c(N[C@H](C)c4cccc(C(F)F)c4F)ncnc3n(C)c2=O)CC2CS(=O)(=O)CC2C1 (stereo partly shown) [Example 32-84] |  | 6.76 |  |
| COC1(c2cc3c(N[C@H](C)c4cccc(C(F)F)c4F)ncnc3n(C)c2=O)CC2CS(=O)(=O)CC2C1 (stereo partly shown) [Example 32-85] |  | 7.27 |  |
| COC1(c2cc3c(N[C@H](C)c4cccc(C(F)F)c4C)ncnc3n(C)c2=O)CCS(=O)(=O)CC1 [Example 32-86] |  | 7.08 |  |
| COC1(c2cc3c(N[C@H](C)c4cccc(C(F)F)c4C)ncnc3n(C)c2=O)CCN(C(C)=O)CC1 [Example 32-87] |  | 7.87 |  |
| COC1(c2cc3c(N[C@@H](C)c4cccc(C(F)F)c4F)ncnc3n(C)c2=O)CCN(C(C)=O)CC1 [Example 32-88] |  | 8.09 |  |
| CO[C@@]1(c2cc3c(N[C@H](C)c4cccc5c4OCC5(F)F)ncnc3n(C)c2=O)CCN(C(C)=O)C1 [Example 32-93] |  | 6.53 |  |
| CO[C@]1(c2cc3c(N[C@H](C)c4cccc5c4OCC5(F)F)ncnc3n(C)c2=O)CCN(C(C)=O)C1 [Example 32-94] |  | 7.55 |  |
| COC1(c2cc3c(N[C@H](C)c4cccc(C(F)F)c4F)ncnc3n(C)c2=O)CN(C(C)=O)CC12CC2 (stereo partly shown) [Example 32-95] |  | 6.10 |  |
| CO[C@]1(c2cc3c(N[C@H](C)c4cccc(C(F)F)c4C)ncnc3n(C)c2=O)CCN(C(C)=O)C1 [Example 32-98] |  | 6.64 |  |
| CO[C@@]1(c2cc3c(N[C@H](C)c4cccc(C(F)F)c4C)ncnc3n(C)c2=O)CCN(C(C)=O)C1 [Example 32-99] |  | 7.77 |  |
| COC1(c2cc3c(N[C@H](C)c4cccc(C(F)F)c4F)ncnc3n(C)c2=O)CCN(C(C)=O)[C@H]1C (stereo partly shown) [Example 32-100] |  | 6.70 |  |
| COC1(c2cc3c(N[C@H](C)c4cccc(C(F)F)c4F)ncnc3n(C)c2=O)CCN(C(C)=O)[C@@H]1C (stereo partly shown) [Example 32-101] |  | 6.46 |  |
| C[C@@H](Nc1ncnc2c1cc(C1(C#N)CCN(C)CC1)c(=O)n2C)c1cccc(C(F)F)c1F [Example 36-2] |  | 7.20 |  |
| CC(=O)N1CC2CC2(c2cc3c(N[C@H](C)c4cccc(C(F)F)c4F)ncnc3n(C)c2=O)C1 (stereo partly drawn) [Example 54, 6-{3-acetyl-3-azabicyclo[3.1.0]hexan-1-yl}-4-{[(1R)-1-[3-(difluoromethyl)-2-fluorophenyl]ethyl]amino}-8-methyl-7H,8H-pyrido[2,3-d]pyrimidin-7-one] |  |  | pIC50 ([3]; Homo sapiens, PC-9, 1 h): 7.33 |
